According to patent publication US20230324419A1, “METHOD FOR DIAGNOSING ACTING OF NERVONIC ACID AND USE THEREOF” (BAO FENG BIOTECH (BEIJING) CO., LTD, priority 2020, published 2023):

Tests used:
[1] = Changes of serum lipids containing nervonic acid chains after taking acer truncatum bunge seed oil for different days; assay type: in vivo, SD rats; details: for blood levels after taking acer truncatum bunge seed oil compared with before taking: rat blood; for serum lipid content, Day 1 (NA1) / serum lipid content, Day 3 (NA3) / serum lipid content, Day 7 (NA7) / difference in content between the third and the seventh day of administration / content compared with the normal group: rat serum; for serum lipid content, Day 1 (NA1) / serum lipid content, Day 3 (NA3) / serum lipid content, Day 7 (NA7): acer truncatum bunge seed oil group, nervonic acid 0.03 g/kg/d by gavage; for difference in content between the third and the seventh day of administration: day 3 vs day 7; for content compared with the normal group: oil group vs normal control group; for NA7/NA1: ratio of serum content day 7 to day 1
Description: The collected serum samples were thawed on ice, 200 µL plasma was extracted with 600 µL pre-cooled isopropanol, vortexed for 1 min, and incubated at room temperature for 10 min. Then the extraction mixture was stored overnight at -20° C., centrifuged at 4000r for 20 min, and the supernatant was transferred to a new centrifuge tube, diluted with isopropanol/acetonitrile/water (2:1:1, v:v:v) to 1:10. The samples were stored at -80° C. before LC-MS analysis. In addition, 10 µL of each extraction mixture was combined to prepare mixed plasma samples.
The mixed plasma samples were analyzed using ACQUITY UPLC(Waters, USA) connected to the Xevo-G2XS High Resolution Time of Flight (QTOF) Mass spectrometer (Waters) with ESI. CQUITY UPLC BEH C18 column (2.1× 100 mm, 1.7 µm, Waters), and mobile phase consisted of 10 mM ammonium formate-0.1% formic acid-acetonitrile (A, 60: 40, v/v) and 10 mM ammonium formate-0.1% formic acid-isopropanol-acetonitrile (B, 90:10, v/v) were used. Pilot trials with 10-, 15-, and 20-minute washout periods were conducted prior to the large-scale study to assess the potential impact of mobile phase composition and flow rate on lipid retention time. In PIM, rich lipid precursor ions and fragments separated in the same order, with similar peak shapes and ionic strengths. […] The flow rate of mobile phase was 0.4 mL/min. The column was initially eluted with 40% B, 43% B in 2 min according to linear gradient, and 50% B within 0.1 min, 54%B in 3.9 minutes according to linear gradient, and 70% B within 0.1 min. In the last part of the gradient, the amount of B increased to 99% in 1.9 minutes. Finally, solution B was returned to 40% within 0.1 min and the column was balanced for 1.9 min before the next sample injection. The lipids were detected by Xevo-G2XS QTOF mass spectrometer with a sample size of 5 µL/time, collection range of m/z50~1200 […], and collection time of 0.2 s/time. The ion source temperature was 120° C., the desolutizing temperature was 600° C., the gas flow rate was 1000 L/h, and nitrogen was used as the flowing gas. The capillary voltage was 2.0 kV(+)/the […] was 1.5 kV(-), and the cone voltage was 30 V. A standard quality determination was carried out using leucine enkephalin and corrected with sodium formate solution. The samples were sorted randomly. A quality control (QC) sample was injected into every 10 samples and analyzed to investigate repeatability of the data.
50 male SD rats aged 5-6 weeks were randomly divided into 2 groups, which were acer truncatum bunge seed oil group (NA group) and normal control group (CK group). After 1 week of adaptive feeding, rats in each group entered into the experiment. Acer truncatum bunge seed oil group was administrated by gavage according to the content of nervonic acid 0.03 g/kg/d, once a day, and blood was collected after 1, 3 and 7 days. The normal control group was fed routinely, and the blood was collected at the same time as the acer truncatum bunge seed oil group for the detection of lipid SM(d17:1/24:1) and Cer(d18:1/24:1(15Z)) with the nervonic acid chain.

[2] = Serum lipid content before and after taking acer truncatum bunge seed oil in patients with demyelinating disease; assay type: in vivo, human
Description: For sample detection, sample pretreatment and ultra-high performance liquid chromatography-mass spectrometry in Example 1 were used. At the same time, standard SM(d17:1/24:1) and Cer(d18:1/24:1(15Z)) were used as reference for detection.

[3] = human, once a day for one month; cited from earlier work
[4] = after 1 day of taking the oil, individual patients

Compound	blood levels after taking acer truncatum bunge seed oil compared with before taking [1]	serum lipid content, Day 1 (NA1) [1]	serum lipid content, Day 3 (NA3) [1]	serum lipid content, Day 7 (NA7) [1]	difference in content between the third and the seventh day of administration [1]	content compared with the normal group [1]	NA7/NA1 [1]	serum lipid content relative to before taking acer truncatum bunge seed oil ([2]; after 7-day of taking the oil) [times]	serum lipid content relative to before taking acer truncatum bunge seed oil [2, 4] [times]	test indexes (mind, picture, recognition, association, sence of touch, understanding) compared with the control group [3]
CCCCCCCC/C=C\CCCCCCCCCCCCCC(=O)N[C@@H](CO)[C@H](O)/C=C/CCCCCCCCCCCCC [Cer(d18:1/24:1(15Z))]	> 1.3 times	135883.1	209352.5	172840.3	no significant difference	increased	1.3	1.45	1.23	
CCCCCCCC/C=C\CCCCCCCCCCCCCC(=O)O [nervonic acid, cis-15-Tetracosenic acid]										significantly improved
SM(d17:1/24:1)	more than 1.2 times	245574.2	340912.8	291861.8	no significant difference	increased	1.2	1.22	1.15	
